Measurements as given in ChEMBL document CHEMBL3751848, “Receptor binding profiles and quantitative structure-affinity relationships of some 5-substituted-N,N-diallyltryptamines” (Bioorg Med Chem Lett, 2016).

Legend:
[1] = molecular target: 5-hydroxytryptamine receptor 1D (Homo sapiens, UniProt P28221); assay: Binding affinity to 5-HT 1D (unknown origin) by competition binding assay
[2] = molecular target: T1, Alpha-1B adrenergic receptor (Homo sapiens, UniProt P35368); assay: Binding affinity to alpha-1B adrenergic receptor (unknown origin) by competition binding assay
T1 sequence (P35368 whole entry): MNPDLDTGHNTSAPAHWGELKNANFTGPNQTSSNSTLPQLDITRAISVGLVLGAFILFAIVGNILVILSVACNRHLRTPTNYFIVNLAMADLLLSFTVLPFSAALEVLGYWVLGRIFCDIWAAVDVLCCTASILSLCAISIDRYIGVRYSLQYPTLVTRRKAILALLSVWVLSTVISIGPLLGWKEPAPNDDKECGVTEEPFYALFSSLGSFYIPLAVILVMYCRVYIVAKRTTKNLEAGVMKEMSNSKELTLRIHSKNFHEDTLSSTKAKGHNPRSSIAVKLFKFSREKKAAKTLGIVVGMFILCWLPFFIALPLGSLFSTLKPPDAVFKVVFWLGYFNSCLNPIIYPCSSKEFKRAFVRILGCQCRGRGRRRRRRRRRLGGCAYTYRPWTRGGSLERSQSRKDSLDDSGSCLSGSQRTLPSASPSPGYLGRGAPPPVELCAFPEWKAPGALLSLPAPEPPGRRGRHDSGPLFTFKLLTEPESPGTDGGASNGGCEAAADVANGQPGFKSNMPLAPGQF

[3] = molecular target: T2, Alpha-2A adrenergic receptor (Homo sapiens, UniProt P08913); assay: Binding affinity to alpha-2A adrenergic receptor (unknown origin) by competition binding assay
T2 sequence (P08913 whole entry): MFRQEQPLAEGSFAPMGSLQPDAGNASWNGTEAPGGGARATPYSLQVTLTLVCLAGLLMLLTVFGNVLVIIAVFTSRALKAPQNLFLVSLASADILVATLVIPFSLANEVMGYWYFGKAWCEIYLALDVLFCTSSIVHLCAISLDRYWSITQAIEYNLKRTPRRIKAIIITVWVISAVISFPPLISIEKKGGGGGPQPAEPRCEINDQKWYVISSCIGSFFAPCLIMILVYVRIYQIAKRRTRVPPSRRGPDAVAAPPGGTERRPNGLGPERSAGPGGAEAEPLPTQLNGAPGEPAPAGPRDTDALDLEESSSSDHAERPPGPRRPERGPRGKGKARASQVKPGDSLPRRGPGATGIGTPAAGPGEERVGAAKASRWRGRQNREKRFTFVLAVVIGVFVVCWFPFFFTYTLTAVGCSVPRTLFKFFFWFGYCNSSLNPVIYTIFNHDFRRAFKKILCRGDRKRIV

[4] = molecular target: Alpha-2B adrenergic receptor (Homo sapiens, UniProt P18089); assay: Binding affinity to alpha-2B adrenergic receptor (unknown origin) by competition binding assay
[5] = molecular target: T3, Alpha-2C adrenergic receptor (Homo sapiens, UniProt P18825); assay: Binding affinity to alpha-2C adrenergic receptor (unknown origin) by competition binding assay
T3 sequence (P18825 whole entry): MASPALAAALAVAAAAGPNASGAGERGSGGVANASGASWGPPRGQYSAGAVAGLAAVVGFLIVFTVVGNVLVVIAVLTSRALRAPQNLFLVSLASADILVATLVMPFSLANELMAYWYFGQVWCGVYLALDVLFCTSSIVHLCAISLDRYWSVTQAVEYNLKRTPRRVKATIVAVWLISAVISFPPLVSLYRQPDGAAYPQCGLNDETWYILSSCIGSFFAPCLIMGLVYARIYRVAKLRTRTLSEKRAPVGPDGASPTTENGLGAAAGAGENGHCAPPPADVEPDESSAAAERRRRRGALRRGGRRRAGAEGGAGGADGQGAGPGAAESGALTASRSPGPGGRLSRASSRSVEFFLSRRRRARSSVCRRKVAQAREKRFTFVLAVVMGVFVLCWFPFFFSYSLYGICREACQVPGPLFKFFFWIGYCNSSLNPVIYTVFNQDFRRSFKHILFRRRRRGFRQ

D(3) dopamine receptor = D(3) dopamine receptor (Homo sapiens, UniProt P35462); assay: Binding affinity to D3 dopamine receptor (unknown origin) by competition binding assay
Histamine H1 receptor = Histamine H1 receptor (Homo sapiens, UniProt P35367); assay: Binding affinity to histamine H1 receptor (unknown origin) by competition binding assay
Mu-type opioid receptor = Mu-type opioid receptor (Homo sapiens, UniProt P35372); assay: Binding affinity to mu type opioid receptor (unknown origin) by competition binding assay
[6] = molecular target: Sigma non-opioid intracellular receptor 1 (Homo sapiens, UniProt Q99720); assay: Binding affinity to sigma 1 receptor (unknown origin) by competition binding assay
[7] = Binding affinity to sigma 2 receptor (unknown origin) by competition binding assay; parameters: species or system Homo sapiens
[8] = molecular target: Sodium-dependent dopamine transporter (Homo sapiens, UniProt Q01959); assay: Binding affinity to DAT (unknown origin) by competition binding assay
Sequence of Sodium-dependent dopamine transporter (Q01959 whole entry): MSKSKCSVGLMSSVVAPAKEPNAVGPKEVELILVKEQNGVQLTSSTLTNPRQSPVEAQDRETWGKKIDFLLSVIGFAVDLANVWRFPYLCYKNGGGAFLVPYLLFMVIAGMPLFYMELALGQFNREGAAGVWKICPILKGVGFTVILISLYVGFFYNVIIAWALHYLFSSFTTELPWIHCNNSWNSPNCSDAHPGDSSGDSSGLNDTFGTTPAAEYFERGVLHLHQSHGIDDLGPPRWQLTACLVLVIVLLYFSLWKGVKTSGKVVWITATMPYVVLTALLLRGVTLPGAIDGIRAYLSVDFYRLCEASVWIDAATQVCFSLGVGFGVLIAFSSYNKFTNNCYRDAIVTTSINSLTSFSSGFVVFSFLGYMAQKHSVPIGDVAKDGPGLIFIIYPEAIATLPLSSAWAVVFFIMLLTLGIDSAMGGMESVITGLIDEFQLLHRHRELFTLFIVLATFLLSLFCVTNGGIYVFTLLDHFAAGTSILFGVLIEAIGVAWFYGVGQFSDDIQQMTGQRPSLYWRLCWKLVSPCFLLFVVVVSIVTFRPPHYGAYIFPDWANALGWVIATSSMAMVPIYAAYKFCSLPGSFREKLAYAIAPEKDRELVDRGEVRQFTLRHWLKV

Sequence of 5-hydroxytryptamine receptor 1D (P28221 whole entry): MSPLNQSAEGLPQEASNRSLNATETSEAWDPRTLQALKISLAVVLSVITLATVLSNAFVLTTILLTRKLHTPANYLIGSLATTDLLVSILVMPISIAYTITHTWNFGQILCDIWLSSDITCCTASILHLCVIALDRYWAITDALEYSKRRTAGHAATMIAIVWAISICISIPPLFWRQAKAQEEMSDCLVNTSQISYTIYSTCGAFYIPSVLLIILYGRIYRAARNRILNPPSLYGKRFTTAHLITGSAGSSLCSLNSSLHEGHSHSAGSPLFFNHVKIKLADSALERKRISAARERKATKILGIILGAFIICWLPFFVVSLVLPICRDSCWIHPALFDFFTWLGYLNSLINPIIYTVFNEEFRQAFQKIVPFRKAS
Sequence of Histamine H1 receptor (P35367 whole entry): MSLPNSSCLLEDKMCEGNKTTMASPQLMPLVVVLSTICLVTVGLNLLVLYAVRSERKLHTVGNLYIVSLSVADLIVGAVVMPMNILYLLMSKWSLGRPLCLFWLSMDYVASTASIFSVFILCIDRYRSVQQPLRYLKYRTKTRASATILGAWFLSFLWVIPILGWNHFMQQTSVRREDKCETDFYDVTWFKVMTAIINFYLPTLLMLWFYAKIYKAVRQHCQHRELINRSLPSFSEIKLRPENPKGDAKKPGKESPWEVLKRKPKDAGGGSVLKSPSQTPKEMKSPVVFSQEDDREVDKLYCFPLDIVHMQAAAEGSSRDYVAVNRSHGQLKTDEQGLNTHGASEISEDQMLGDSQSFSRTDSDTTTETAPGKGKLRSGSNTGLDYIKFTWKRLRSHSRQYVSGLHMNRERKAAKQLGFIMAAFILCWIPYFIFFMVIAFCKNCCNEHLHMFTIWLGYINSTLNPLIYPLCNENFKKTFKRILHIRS
Sequence of Sigma non-opioid intracellular receptor 1 (Q99720 whole entry): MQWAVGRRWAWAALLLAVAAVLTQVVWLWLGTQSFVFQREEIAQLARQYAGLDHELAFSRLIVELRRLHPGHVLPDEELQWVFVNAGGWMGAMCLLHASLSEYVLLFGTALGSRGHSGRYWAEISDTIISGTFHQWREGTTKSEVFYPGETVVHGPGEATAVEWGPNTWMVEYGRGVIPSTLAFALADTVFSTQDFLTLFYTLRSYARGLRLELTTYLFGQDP
Sequence of D(3) dopamine receptor (P35462 whole entry): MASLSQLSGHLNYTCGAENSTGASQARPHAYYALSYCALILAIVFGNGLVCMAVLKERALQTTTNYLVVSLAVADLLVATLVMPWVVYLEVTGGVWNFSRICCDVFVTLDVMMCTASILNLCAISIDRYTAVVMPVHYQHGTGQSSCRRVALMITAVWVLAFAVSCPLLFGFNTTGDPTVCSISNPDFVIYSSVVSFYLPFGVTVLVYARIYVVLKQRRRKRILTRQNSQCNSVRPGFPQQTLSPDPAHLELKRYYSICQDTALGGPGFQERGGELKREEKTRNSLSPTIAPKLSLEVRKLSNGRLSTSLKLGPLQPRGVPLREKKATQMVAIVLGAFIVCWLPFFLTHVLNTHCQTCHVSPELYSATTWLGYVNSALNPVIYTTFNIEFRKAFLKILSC
Sequence of Alpha-2B adrenergic receptor (P18089 whole entry): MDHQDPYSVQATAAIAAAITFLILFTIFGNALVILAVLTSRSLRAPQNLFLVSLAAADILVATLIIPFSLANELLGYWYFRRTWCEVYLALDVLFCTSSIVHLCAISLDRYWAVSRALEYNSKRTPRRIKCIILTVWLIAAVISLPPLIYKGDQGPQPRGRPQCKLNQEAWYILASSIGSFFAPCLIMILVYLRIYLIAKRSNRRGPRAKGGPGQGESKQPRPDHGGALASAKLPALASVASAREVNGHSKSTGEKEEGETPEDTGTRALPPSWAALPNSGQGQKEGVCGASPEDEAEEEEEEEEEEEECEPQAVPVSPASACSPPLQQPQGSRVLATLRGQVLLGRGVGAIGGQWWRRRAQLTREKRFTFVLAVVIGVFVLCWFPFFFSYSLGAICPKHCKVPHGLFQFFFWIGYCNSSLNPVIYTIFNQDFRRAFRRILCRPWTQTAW
Sequence of Mu-type opioid receptor (P35372 whole entry): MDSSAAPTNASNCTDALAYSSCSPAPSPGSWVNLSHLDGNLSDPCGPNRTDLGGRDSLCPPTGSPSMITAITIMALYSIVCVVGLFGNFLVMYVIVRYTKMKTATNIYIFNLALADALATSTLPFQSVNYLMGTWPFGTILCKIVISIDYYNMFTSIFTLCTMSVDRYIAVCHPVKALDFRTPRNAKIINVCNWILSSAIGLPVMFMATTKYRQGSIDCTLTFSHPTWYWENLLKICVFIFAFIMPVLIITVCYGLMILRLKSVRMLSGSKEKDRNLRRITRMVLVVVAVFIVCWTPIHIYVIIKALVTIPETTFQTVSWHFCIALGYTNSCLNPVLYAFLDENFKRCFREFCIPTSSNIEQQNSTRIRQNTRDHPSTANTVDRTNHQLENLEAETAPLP

SMILES | Ki ([1]; read-out: Ki) | Ki ([1]; read-out: pKi (converted)) | Ki [2] | Ki ([3]; read-out: Ki) | Ki ([3]; read-out: pKi (converted)) | Ki ([4]; read-out: Ki) | Ki ([4]; read-out: pKi (converted)) | Ki ([5]; read-out: Ki) | Ki ([5]; read-out: pKi (converted)) | Ki (D(3) dopamine receptor) | Ki (Histamine H1 receptor; read-out: Ki) | Ki (Histamine H1 receptor; read-out: pKi (converted)) | Ki (Mu-type opioid receptor) | Ki ([6]; read-out: Ki) | Ki ([6]; read-out: pKi (converted)) | Ki [7] | pKi [7] | Ki [8]
C=CCN(CC=C)CCc1c[nH]c2ccccc12 | < 10000 nM | 692 nM | 1260 nM | < 10000 nM | 123 nM | < 10000 nM | 302 nM | < 10000 nM | 891 nM | 676 nM | < 10000 nM | 126 nM | < 10000 nM | < 10000 nM | 100 nM | < 10000 nM | 6.45 | 1260 nM
C=CCN(CC=C)CCc1c[nH]c2ccc(C)cc12 | < 10000 nM | 398 nM | 1780 nM | < 10000 nM | 195 nM |  |  | < 10000 nM | 1100 nM | 692 nM | < 10000 nM | 676 nM | < 10000 nM | < 10000 nM | 74.1 nM |  |  | 3160 nM
